Patent US20170022171A1, “2,5-DISUBSTITUTED CYCLOPENTANECARBOXYLIC ACIDS AND THEIR USE” (Bayer Pharma Aktiengesellschaft, priority 2014, published 2017)

Tests used:
Assay type in all cases: biochemical
MMP-1 = biological target: T1, MMP-1 (Homo sapiens, UniProt P03956); assay: In vitro MMP-1 inhibition test
T1 construct: purchased R&D Systems 901-MP
T1 sequence (P03956 100-469): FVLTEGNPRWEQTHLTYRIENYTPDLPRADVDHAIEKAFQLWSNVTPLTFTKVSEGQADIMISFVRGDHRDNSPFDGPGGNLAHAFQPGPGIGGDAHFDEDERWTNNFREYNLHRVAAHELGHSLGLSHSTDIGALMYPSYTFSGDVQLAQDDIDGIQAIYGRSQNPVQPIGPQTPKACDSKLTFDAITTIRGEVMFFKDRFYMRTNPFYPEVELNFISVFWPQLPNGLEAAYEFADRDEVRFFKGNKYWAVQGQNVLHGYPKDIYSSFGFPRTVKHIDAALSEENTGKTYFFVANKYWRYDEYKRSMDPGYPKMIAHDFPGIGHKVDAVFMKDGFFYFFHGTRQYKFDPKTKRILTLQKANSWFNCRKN
From the text: (§1) The MMP-mediated amidolytic cleavage of a suitable peptide substrate leads to an increase in fluorescent light here too. The signal intensity of the fluorescent light is directly proportional to the enzyme activity. The active concentration of a test compound at which half the enzyme is inhibited (50% signal intensity of the fluorescent light) is reported as the IC50 value.
(§2) Recombinant MMP-1 (from R&D Systems, 901-MP) is chemically activated in accordance with the manufacturer's instructions using APMA. 1 μl of the test compound to be analysed (as a solution in DMSO, suitable concentrations, for example, 1 nM to 30 μM) is pipetted into 24 μl of activated enzyme (final concentration, for example, 2 nM) in reaction buffer (50 mM Tris/HCl pH 7.5, 10 mM CaCl2, 150 mM NaCl, 0.05% Brij®-35) in a white 384-hole microtiter plate (MTP). The enzymatic reaction is started by adding the intramolecularly quenched Mca-Pro-Leu-Gly-Leu-Dpa(Dnp)-Ala-Arg-NH2 substrate (final concentration, for example, 10 μM; R&D Systems, ES-001), so as to result in a total test volume of 50 μl. The course of the MMP-1 reaction is measured by measuring the fluorescence intensity (excitation 320 nm, emission 410 nm) over a suitable period of time (for example over 120 min at a temperature of 32° C.).

MMP-9 = biological target: T2, MMP-9 (Homo sapiens, UniProt P14780); assay: In vitro MMP-9 inhibition test
T2 construct: purchased R&D Systems 911-MP
From the text: as §1
as §2, with “Recombinant MMP-9” for “Recombinant MMP-1”, “Systems, 911-MP)” for “Systems, 901-MP)”, “example, 0.1” for “example, 2”, “the MMP-9” for “the MMP-1”

MMP-7 = biological target: T3, MMP-7 (Homo sapiens, UniProt P09237); assay: In vitro MMP-7 inhibition test
T3 construct: purchased R&D Systems 907-MP
T3 sequence (P09237 95-267): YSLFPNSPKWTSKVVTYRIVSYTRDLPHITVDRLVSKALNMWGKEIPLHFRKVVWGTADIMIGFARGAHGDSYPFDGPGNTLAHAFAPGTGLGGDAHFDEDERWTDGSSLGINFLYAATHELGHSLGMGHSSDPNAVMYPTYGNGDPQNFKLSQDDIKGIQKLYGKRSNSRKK
From the text: as §1
as §2, with “Recombinant MMP-7” for “Recombinant MMP-1”, “Systems, 907-MP)” for “Systems, 901-MP)”, “example, 0.5” for “example, 2”, “[…]” for “50 μl.”, “the MMP-7” for “the MMP-1”

[1] = biological target: T4, human macrophage elastase (HME/hMMP-12) (Homo sapiens, UniProt P39900); assay: In vitro HME inhibition test (standard or high-sensitivity); conditions: in some cases mean values
T4 construct: 0.5 nM HME; purchased R&D Systems 917-MP
Outline: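 Fluorogenic assay: 0.5 nM autoactivated HME with 5 µM Mca-Pro-Leu-Gly-Leu-Glu-Glu-Ala-Dap(Dnp)-NH2 in HEPES pH 7.4 buffer (NaCl, CaCl2, ZnCl2, EDTA, Brij), 2 h at 37 °C; ex 323/em 393 nm. IC50 from fluorescence versus concentration. High-sensitivity format: ~0.05 nM enzyme, ~16 h incubation.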

T4 sequence (P39900 106-470): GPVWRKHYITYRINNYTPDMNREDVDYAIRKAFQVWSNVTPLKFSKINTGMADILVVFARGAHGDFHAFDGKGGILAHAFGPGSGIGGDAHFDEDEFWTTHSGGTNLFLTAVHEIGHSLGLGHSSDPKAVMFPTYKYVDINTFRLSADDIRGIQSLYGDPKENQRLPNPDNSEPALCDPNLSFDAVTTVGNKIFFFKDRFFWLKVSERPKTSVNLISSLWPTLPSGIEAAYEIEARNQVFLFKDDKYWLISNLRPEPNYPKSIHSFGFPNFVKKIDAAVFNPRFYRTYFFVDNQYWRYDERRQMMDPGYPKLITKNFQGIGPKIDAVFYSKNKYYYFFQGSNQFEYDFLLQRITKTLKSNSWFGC
T2 sequence (P14780 107-707 limits assumed): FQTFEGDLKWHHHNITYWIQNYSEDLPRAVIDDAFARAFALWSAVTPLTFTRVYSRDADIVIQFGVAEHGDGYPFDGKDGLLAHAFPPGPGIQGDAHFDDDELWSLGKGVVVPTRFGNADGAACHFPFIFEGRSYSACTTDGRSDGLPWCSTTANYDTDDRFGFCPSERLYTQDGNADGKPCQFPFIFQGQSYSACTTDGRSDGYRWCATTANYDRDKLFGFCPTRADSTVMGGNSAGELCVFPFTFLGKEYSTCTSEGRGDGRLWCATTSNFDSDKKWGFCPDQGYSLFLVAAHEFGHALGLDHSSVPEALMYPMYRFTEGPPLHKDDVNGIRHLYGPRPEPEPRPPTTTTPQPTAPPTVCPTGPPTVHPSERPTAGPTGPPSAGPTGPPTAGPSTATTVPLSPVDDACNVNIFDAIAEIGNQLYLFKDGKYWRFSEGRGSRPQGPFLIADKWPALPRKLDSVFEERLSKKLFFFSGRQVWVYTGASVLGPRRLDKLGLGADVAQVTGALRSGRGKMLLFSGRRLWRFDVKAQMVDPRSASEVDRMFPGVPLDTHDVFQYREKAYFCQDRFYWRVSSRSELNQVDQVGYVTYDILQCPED

CCCCCSc1ccc(C(=O)[C@H]2CC[C@@H](Cn3nnc4ccc(C(F)(F)F)cc4c3=O)[C@@H]2C(=O)O)cc1 (racemic) [Example 88, (+/−)-(1RS,2SR,5RS)-2-{[4-Oxo-6-(trifluoromethyl)-1,2,3-benzotriazin-3(4H)-yl]methyl}-5-[4-(pentylsulphanyl)benzoyl]cyclopentanecarboxylic acid]
IC50 (MMP-1): 2500 nM | IC50 (MMP-9): 55 nM | IC50 (MMP-7): 120 nM | IC50 [1]: 0.023 nM

Cc1ccc2nnn(C[C@@H]3CC[C@H](C(=O)c4ccc(OCc5ccccc5)cc4)[C@H]3C(=O)O)c(=O)c2c1 (racemic) [Example 91, (+/−)-(1RS,2RS,5SR)-2-[4-(Benzyloxy)benzoyl]-5-[(6-methyl-4-oxo-1,2,3-benzotriazin-3(4H)-yl)methyl]cyclopentanecarboxylic acid]
IC50 (MMP-1): 5700 nM | IC50 (MMP-9): 21 nM | IC50 (MMP-7): 190 nM | IC50 [1]: 0.074 nM

Cc1cccc(COc2ccc(C(=O)[C@H]3CC[C@@H](Cn4nnc5ccc(C)cc5c4=O)[C@@H]3C(=O)O)cc2)c1 (racemic) [Example 97, (+/−)-(1RS,2RS,5SR)-2-{4-[(3-Methylbenzyl)oxy]benzoyl}-5-[(6-methyl-4-oxo-1,2,3-benzotriazin-3(4H)-yl)methyl]cyclopentanecarboxylic acid]
IC50 (MMP-1): > 40000 nM | IC50 (MMP-9): 740 nM | IC50 (MMP-7): 1500 nM | IC50 [1]: 0.4 nM

Cc1ccc2nnn(C[C@@H]3CC[C@H](C(=O)c4ccc(OCc5cccc(C(F)(F)F)c5)cc4)[C@H]3C(=O)O)c(=O)c2c1 (racemic) [Example 100, (+/−)-(1RS,2SR,5RS)-2-[(6-Methyl-4-oxo-1,2,3-benzotriazin-3(4H)-yl)methyl]-5-(4-{[3-(trifluoromethyl)benzyl]oxy}benzoyl)cyclopentanecarboxylic acid]
IC50 (MMP-1): > 40000 nM | IC50 (MMP-9): 160 nM | IC50 (MMP-7): 1000 nM | IC50 [1]: 0.08 nM

Cc1ccc2nnn(C[C@@H]3CC[C@H](C(=O)c4ccc(OCc5cccc(Cl)c5)cc4)[C@H]3C(=O)O)c(=O)c2c1 (racemic) [Example 103, (+/−)-(1RS,2RS,5SR)-2-{4-[(3-Chlorobenzyl)oxy]benzoyl}-5-[(6-methyl-4-oxo-1,2,3-benzotriazin-3(4H)-yl)methyl]cyclopentanecarboxylic acid]
IC50 (MMP-1): 9700 nM | IC50 (MMP-9): 110 nM | IC50 (MMP-7): 330 nM | IC50 [1]: 0.1 nM

COc1cccc(COc2ccc(C(=O)[C@H]3CC[C@@H](Cn4nnc5ccc(C)cc5c4=O)[C@@H]3C(=O)O)cc2)c1 (racemic) [Example 106, (+/−)-(1RS,2RS,5SR)-2-{4-[(3-Methoxybenzyl)oxy]benzoyl}-5-[(6-methyl-4-oxo-1,2,3-benzotriazin-3(4H)-yl)methyl]cyclopentanecarboxylic acid]
IC50 (MMP-1): 12000 nM | IC50 (MMP-9): 76 nM | IC50 (MMP-7): 190 nM | IC50 [1]: 0.078 nM

Cc1ccc2nnn(C[C@@H]3CC[C@H](C(=O)c4ccc(OCc5cccc(OC(F)(F)F)c5)cc4)[C@H]3C(=O)O)c(=O)c2c1 (racemic) [Example 109, (+/−)-(1RS,2SR,5RS)-2-[(6-Methyl-4-oxo-1,2,3-benzotriazin-3(4H)-yl)methyl]-5-(4-{[3-(trifluoromethoxy)benzyl]oxy}benzoyl)cyclopentanecarboxylic acid]
IC50 (MMP-1): > 40000 nM | IC50 (MMP-9): 150 nM | IC50 (MMP-7): 1700 nM | IC50 [1]: 0.14 nM

CCCCCOc1ccc(C(=O)[C@H]2CC[C@@H](Cn3nnc4ccc(C)cc4c3=O)[C@@H]2C(=O)O)cc1 (racemic) [Example 123, (+/−)-(1RS,2SR,5RS)-2-[(6-Methyl-4-oxo-1,2,3-benzotriazin-3(4H)-yl)methyl]-5-[4-(pentyloxy)benzoyl]cyclopentanecarboxylic acid]
IC50 (MMP-1): 24000 nM | IC50 (MMP-9): 94 nM | IC50 (MMP-7): 390 nM | IC50 [1]: 0.088 nM
